Laboratory results from PubChem BioAssay (NCI).
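In this assay, cells in 96-well plates receive the compound at five concentrations for 48 hours. Endpoints are linearly interpolated between the surrounding concentrations. Abbreviation: GI50, concentration required for 50% inhibition of growth. At the TGI there is no net growth.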

Columns and labels:
Test in all cases: DTP human tumour cell line panel, 48 h
786-0 renal = system: 786-0 renal
A498 renal = system: A498 renal
A549 NSCLC = system: A549 NSCLC
ACHN renal = system: ACHN renal
BT-549 breast = system: BT-549 breast
CAKI-1 renal = system: CAKI-1 renal
CCRF-CEM leukemia = system: CCRF-CEM leukemia
COLO 205 colon = system: COLO 205 colon
DU-145 prostate = system: DU-145 prostate
EKVX NSCLC = system: EKVX NSCLC
HCC-2998 colon = system: HCC-2998 colon
HCT-116 colon = system: HCT-116 colon
HCT-15 colon = system: HCT-15 colon
HL-60(TB) leukemia = system: HL-60(TB) leukemia
HOP-62 NSCLC = system: HOP-62 NSCLC
HOP-92 NSCLC = system: HOP-92 NSCLC
HS 578T breast = system: HS 578T breast
HT29 colon = system: HT29 colon
IGROV1 ovarian = system: IGROV1 ovarian
K-562 leukemia = system: K-562 leukemia
KM12 colon = system: KM12 colon
LOX IMVI melanoma = system: LOX IMVI melanoma
M14 melanoma = system: M14 melanoma
MALME-3M melanoma = system: MALME-3M melanoma
MCF7 breast = system: MCF7 breast
MDA-MB-231 breast = system: MDA-MB-231 breast
MDA-MB-435 = system: MDA-MB-435
MDA-MB-468 breast = system: MDA-MB-468 breast
MOLT-4 leukemia = system: MOLT-4 leukemia
NCI-H226 lung = system: NCI-H226 lung
NCI-H23 lung = system: NCI-H23 lung
NCI-H460 lung = system: NCI-H460 lung
NCI-H522 lung = system: NCI-H522 lung
OVCAR-3 ovarian = system: OVCAR-3 ovarian
OVCAR-4 ovarian = system: OVCAR-4 ovarian
OVCAR-5 ovarian = system: OVCAR-5 ovarian
OVCAR-8 ovarian = system: OVCAR-8 ovarian
PC-3 prostate = system: PC-3 prostate
RPMI-8226 leukemia = system: RPMI-8226 leukemia
RXF 393 renal = system: RXF 393 renal
SF-268 CNS = system: SF-268 CNS
SF-295 CNS = system: SF-295 CNS
SF-539 CNS = system: SF-539 CNS
SK-MEL-2 melanoma = system: SK-MEL-2 melanoma
SK-MEL-28 melanoma = system: SK-MEL-28 melanoma
SK-MEL-5 melanoma = system: SK-MEL-5 melanoma
SK-OV-3 ovarian = system: SK-OV-3 ovarian
SN12C renal = system: SN12C renal
SNB-19 CNS = system: SNB-19 CNS
SNB-75 CNS = system: SNB-75 CNS
SR leukemia = system: SR leukemia
SW-620 colon = system: SW-620 colon
T-47D breast = system: T-47D breast
TK-10 renal = system: TK-10 renal
U251 CNS = system: U251 CNS
UACC-257 melanoma = system: UACC-257 melanoma
UACC-62 melanoma = system: UACC-62 melanoma
UO-31 renal = system: UO-31 renal

CSc1ccc(NC(=O)c2ccc3nnn(/C(C#N)=C/c4ccccn4)c3c2)cc1
GI50 (786-0 renal): 1570 nM | TGI (786-0 renal): 3050 nM | GI50 (A498 renal): 9470 nM | TGI (A498 renal): 21400 nM | GI50 (A549 NSCLC): 2910 nM | TGI (A549 NSCLC): 11000 nM | GI50 (ACHN renal): 1690 nM | TGI (ACHN renal): 3060 nM | GI50 (BT-549 breast): 1610 nM | TGI (BT-549 breast): 3130 nM | GI50 (CAKI-1 renal): 1200 nM | TGI (CAKI-1 renal): 2460 nM | GI50 (CCRF-CEM leukemia): 1380 nM | TGI (CCRF-CEM leukemia): 8010 nM | GI50 (COLO 205 colon): 1110 nM | TGI (COLO 205 colon): 2390 nM | GI50 (DU-145 prostate): 1630 nM | TGI (DU-145 prostate): 2990 nM | GI50 (EKVX NSCLC): 1590 nM | TGI (EKVX NSCLC): 3000 nM | GI50 (HCC-2998 colon): 1650 nM | TGI (HCC-2998 colon): 3010 nM | GI50 (HCT-116 colon): 1740 nM | TGI (HCT-116 colon): 3550 nM | GI50 (HCT-15 colon): 1040 nM | TGI (HCT-15 colon): 2300 nM | GI50 (HL-60(TB) leukemia): 1590 nM | TGI (HL-60(TB) leukemia): 7080 nM | GI50 (HOP-62 NSCLC): 2210 nM | TGI (HOP-62 NSCLC): 5630 nM | GI50 (HOP-92 NSCLC): 1500 nM | TGI (HOP-92 NSCLC): 3200 nM | GI50 (HS 578T breast): 2070 nM | TGI (HS 578T breast): 4960 nM | GI50 (HT29 colon): 1890 nM | TGI (HT29 colon): 3890 nM | GI50 (IGROV1 ovarian): 1870 nM | TGI (IGROV1 ovarian): 3570 nM | GI50 (K-562 leukemia): 1230 nM | TGI (K-562 leukemia): > 100000 nM | GI50 (KM12 colon): 1600 nM | TGI (KM12 colon): 3270 nM | GI50 (LOX IMVI melanoma): 879 nM | TGI (LOX IMVI melanoma): 2120 nM | GI50 (M14 melanoma): 1670 nM | TGI (M14 melanoma): 3270 nM | GI50 (MALME-3M melanoma): 1570 nM | TGI (MALME-3M melanoma): 2960 nM | GI50 (MCF7 breast): 1010 nM | TGI (MCF7 breast): 2510 nM | GI50 (MDA-MB-231 breast): 1750 nM | TGI (MDA-MB-231 breast): 3210 nM | GI50 (MDA-MB-435): 1460 nM | TGI (MDA-MB-435): 2920 nM | GI50 (MDA-MB-468 breast): 904 nM | TGI (MDA-MB-468 breast): 2280 nM | GI50 (MOLT-4 leukemia): 1830 nM | TGI (MOLT-4 leukemia): 8330 nM | GI50 (NCI-H226 lung): 2290 nM | TGI (NCI-H226 lung): 6140 nM | GI50 (NCI-H23 lung): 1590 nM | TGI (NCI-H23 lung): 2970 nM | GI50 (NCI-H460 lung): 1930 nM | TGI (NCI-H460 lung): 4590 nM | GI50 (NCI-H522 lung): 1250 nM | TGI (NCI-H522 lung): 2650 nM | GI50 (OVCAR-3 ovarian): 1220 nM | TGI (OVCAR-3 ovarian): 2540 nM | GI50 (OVCAR-4 ovarian): 1640 nM | TGI (OVCAR-4 ovarian): 3010 nM | GI50 (OVCAR-5 ovarian): 1600 nM | TGI (OVCAR-5 ovarian): 3020 nM | GI50 (OVCAR-8 ovarian): 1750 nM | TGI (OVCAR-8 ovarian): 3680 nM | GI50 (PC-3 prostate): 2040 nM | TGI (PC-3 prostate): 4370 nM | GI50 (RPMI-8226 leukemia): 1460 nM | TGI (RPMI-8226 leukemia): 4700 nM | GI50 (RXF 393 renal): 1320 nM | TGI (RXF 393 renal): 2600 nM | GI50 (SF-268 CNS): 2470 nM | TGI (SF-268 CNS): 7060 nM | GI50 (SF-295 CNS): 1880 nM | TGI (SF-295 CNS): 4660 nM | GI50 (SF-539 CNS): 1610 nM | TGI (SF-539 CNS): 2970 nM | GI50 (SK-MEL-2 melanoma): 1710 nM | TGI (SK-MEL-2 melanoma): 3220 nM | GI50 (SK-MEL-28 melanoma): 1480 nM | TGI (SK-MEL-28 melanoma): 2820 nM | GI50 (SK-MEL-5 melanoma): 1640 nM | TGI (SK-MEL-5 melanoma): 3050 nM | GI50 (SK-OV-3 ovarian): 5490 nM | TGI (SK-OV-3 ovarian): 18000 nM | GI50 (SN12C renal): 1780 nM | TGI (SN12C renal): 3510 nM | GI50 (SNB-19 CNS): 2740 nM | TGI (SNB-19 CNS): 8650 nM | GI50 (SNB-75 CNS): 1820 nM | TGI (SNB-75 CNS): 4380 nM | GI50 (SR leukemia): 1650 nM | TGI (SR leukemia): 34400 nM | GI50 (SW-620 colon): 763 nM | TGI (SW-620 colon): 2140 nM | GI50 (T-47D breast): 1330 nM | TGI (T-47D breast): 3060 nM | GI50 (TK-10 renal): 1570 nM | TGI (TK-10 renal): 2980 nM | GI50 (U251 CNS): 1560 nM | TGI (U251 CNS): 3050 nM | GI50 (UACC-257 melanoma): 1600 nM | TGI (UACC-257 melanoma): 3070 nM | GI50 (UACC-62 melanoma): 1610 nM | TGI (UACC-62 melanoma): 3050 nM | GI50 (UO-31 renal): 1350 nM | TGI (UO-31 renal): 2640 nM
